# Measurements reported in patent US10888544B2, “Methods for treating Gaucher disease” (Genzyme Corporation, priority 2017, dated 2021).
# Key:
# [1] = Safety evaluation in the renal impairment single dose study (Example 3); format: in vivo, human
# Description: The safety evaluation was based on the review of the individual values (clinically significant abnormalities) and descriptive statistics (summary tables). All safety analyses were performed using the safety population and based on the on-treatment phase (defined as the start time of investigational medicinal product [IMP] administration up to Day 3 visit). For laboratory, vital sign, and ECG data, the Potentially Clinically Significant Abnormalities (PCSAs) were analyzed using PCSA list (Version 3.0, 24 May 2014). Electrocardiogram parameters were obtained from automatic reading of the 12-lead ECGs and were analyzed as raw parameter value and change from baseline. For vital signs, raw data and changes from baseline were summarized using descriptive statistics by population group and time of measurement. All individual data for biochemistry, hematology, and qualitative urinary tests were listed.
# Vital signs and ECG readings were analyzed as raw parameter value and change from baseline.
# Adverse events were coded according to the Medical Dictionary for Regulatory Activities (MedDRA, version 19.1). They were classified into pre-defined standard categories according to chronological criteria: • Pretreatment adverse events: AEs that occurred, worsened (according to the Investigator's opinion) or became serious during the pretreatment phase (defined as the time between the signature of the informed consent and IMP administration [excluded]); • Treatment-emergent adverse events (TEAEs): AEs that occurred, worsened or became serious during the on-treatment phase; • Posttreatment adverse events: AEs that occurred, worsened or became serious during the posttreatment phase (defined as starting after the Day 3 visit and ending with EOS).
# The number and percentage of subjects with TEAEs were listed by population group, primary system-organ class (SOC), preferred term (PT), and AE diagnosis.
# [2] = Safety evaluation in the hepatic impairment single dose study (Example 1); format: in vivo, human
# Description: The safety evaluation was based upon the review of the individual values (clinically significant abnormalities) and descriptive statistics (summary tables). All safety analyses were performed using the safety population and were based on the on-treatment phase (defined as the time from investigational medicinal product [IMP] administration up to Day 3 visit, inclusive). For laboratory, vital signs, and ECG data, potentially clinically significant abnormalities (PCSAs) were analyzed using the 24 May 2014 version of the PCSA list. Electrocardiogram parameters were obtained from automatic reading of 12-lead ECGs and were analyzed as raw parameter values and change from baseline. For vital signs, raw data and changes from baseline were summarized using descriptive statistics by population group and time point. All individual data for biochemistry, hematology, and qualitative urinary tests were listed.
# Adverse events were coded according to the Medical Dictionary for Regulatory Activities (MedDRA v.19.1) and classified into predefined standard categories according to chronological criteria: • Pretreatment adverse events (AEs), defined as AEs that occurred, worsened (according to Investigator opinion), or became serious during the pretreatment phase (defined as the time between the signature of the informed consent and IMP administration [excluded]); • Treatment-emergent AEs (TEAEs), defined as AEs that occurred, worsened, or became serious during the on-treatment phase; • Posttreatment AEs, defined as AEs that occurred, worsened, or became serious during the posttreatment phase (defined as the time after Day 3 visit through completion of EOS).
# All AEs reported in the study were listed and sorted by subject, onset date and time. The number and percentage of subjects with TEAEs were listed by population group, primary system-organ class (SOC), preferred term (PT), and AE diagnosis.
# [3] = renal impairment study, single dose
# [4] = hepatic impairment study, single dose
smiles,measurement,setting,value
"CCCCCCCC(=O)N[C@H](CN1CCCC1)[C@H](O)c1ccc2c(c1)OCCO2 [eliglustat, N-((1R,2R)-1-(2,3-dihydrobenzo[b][1,4]dioxin-6-yl)-1-hydroxy-3-(pyrrolidin-1-yl)propan-2-yl)octanamide]",Total number of mild TEAEs observed,"[1]; in 1 subject, considered related to study drug: fatigue in a healthy subject",one
same,Deaths or withdrawals due to AEs,[1]; [3],no deaths or withdrawals due to AEs
same,Serious adverse events,[1]; [3],No serious adverse events were reported
same,"Treatment emergent PCSA (laboratory values, vital signs, ECGs)",[1]; [3],no treatment emergent PCSA that were clinically relevant
same,Total number of mild TEAEs observed,"[2]; all groups (healthy, mild HI, moderate HI), in 5 subjects, single dose",6
same,Deaths or other significant AEs,[2]; [4],no deaths or other significant AEs
same,Serious adverse events,[2]; [4],No serious adverse events were reported
same,"Treatment emergent PCSA (laboratory values, vital signs, ECGs)",[2]; [4],no treatment emergent PCSA that were clinically relevant
same,TEAEs considered related to study drug by the investigator,"[2]; in 3 subjects: dysgeusia in 2 moderate HI subjects, nausea and headache in 1 healthy subject",Four
